Among the data in patent US20180207105A1, “METHOD FOR MANUFACTURING A THERAPEUTIC AGENT FOR USE IN THE TREATMENT OF INFECTIONS” (AGA NANOTECH LTD, priority 2014, published 2018) are pH of solution values, retold here.

Molecules are shown by their SMILES.

A short description of the data set: pH of solutions of the active ingredients alone dissolved in ultrapure water. Format: physicochemical.
[1] abbreviates: 17.5 mg/ml (1.75 wt %) in ultrapure water.
Where [2] appears, read: 35 mg/ml (3.5 wt %) in ultrapure water.
Setting [3] is: 70 mg/ml (7 wt %) in ultrapure water.
Where [4] appears, read: 140 mg/ml (14 wt %) in ultrapure water.
The mark [5] stands for this setting: 280 mg/ml (28 wt %) in ultrapure water.

For `O=C([O-])[O-].O=C([O-])[O-].OO.OO.OO.[Na+].[Na+].[Na+].[Na+]` [Sodium Percarbonate, Sodium percarbonate], the pH of solution reads like this: under setting [1], 10.83; under setting [2], 10.89; under setting [3], 10.87; under setting [4], 10.83; under setting [5], 10.74.
As to `NC(N)=O.OO` [Urea Hydrogen Peroxide, urea hydrogen peroxide], the pH of solution is given as 7.90 under setting [1]; 6.92 under setting [2]; 6.9 under setting [3]; 6.38 under setting [4]; 4.97 under setting [5].
